This is an account of results in patent EP4745117A1, “NOVEL INDENONE DERIVATIVE AND USE THEREOF” (Amyloid Solution Inc., priority 2023, dated 2025).

SMILES strings stand for the structures.

Usually EC50 stands for the concentration that produces a half-maximal response.

For test [1], the target named is Tau-RD3 (Tau repeat domain 3) (Homo sapiens, UniProt P10636). Briefly: Tau disaggregation test by Thioflavin-T analysis. In kind it is biochemical. The settings on record: for EC50: Tau-RD3 35 µM aggregated 24 hours, then compound 0 - 500 µM for 48 hours at 37 °C, concentration disaggregating 50 % of aggregates vs control, read-out: EC50 (µM) Tau; for disaggregation effect for tau protein aggregates: statement in words summarising the Thioflavin-T results. The protocol:
(§1) Each compound was dissolved in DMSO to a concentration of 10 mM. Then, the compounds were diluted with 6 % DMSO (in DW) for use.
(§2) Amyloid-beta and tau solutions were prepared by dissolving Aβ1-42 or Tau-RD3 (Tau repeat domain 3) monomers in DMSO to a concentration of 10 mM. Then, the solutions were diluted to 100 µM with DW and stored on ice.
(§3) Meanwhile, Thioflavin-T was dissolved in 50 mM glycine buffer (pH 8.5) to a concentration of 5 mM. Then, the solution was diluted to 5 µM with 50 mM glycine buffer (pH 8.5) and stored in the dark, protected from light.
(§4) The amyloid-beta and tau solutions prepared in Example 1.1 were each placed in 1.5 mL microcentrifuge tubes to a concentration of 50 µM or 35 µM, respectively, and then reacted at 37 °C for 24 hours.
(§5) To each 1.5 mL microcentrifuge tube in which the amyloid-beta and tau aggregation was complete, the compounds were added at concentrations ranging from 500 µM down to 0 µM by serial dilution, and then further reacted at 37 °C for 48 hours.
(§6) 25 µL of each completed reaction solution was added to each well of a 96-well fluorescence analysis plate, and 75 µL of the Thioflavin-T solution was added to each well. After reacting for 5 minutes at room temperature in the dark, the fluorescence value was measured at 450 nm (excitation) and 485 nm (emission) using a multi-mode microplate reader.
(§7) The fluorescence value of the group (control group) treated with only amyloid-beta or tau and aggregated for 72 hours was designated as 100 %. The fluorescence values measured after treating the amyloid-beta and tau aggregates (formed by reacting for 24 hours) with each compound by concentration and reacting for an additional 48 hours were converted to relative values.

A further test concerns the target T1, Aβ1-42 (Homo sapiens, UniProt P05067).
T1 construct: dissolving Aβ1-42 or Tau-RD3 (Tau repeat domain 3) monomers in DMSO
Put plainly: Amyloid-beta disaggregation test by Thioflavin-T analysis. In kind it is biochemical. As to conditions: for EC50: Aβ1-42 50 µM aggregated 24 hours, then compound 0 - 500 µM for 48 hours at 37 °C, concentration disaggregating 50 % of aggregates vs control, read-out: EC50 (µM) Aβ; for disaggregation effect for amyloid-beta protein aggregates: statement in words summarising the Thioflavin-T results. The protocol:
as §1, §2, §3, §4, §5, §6, §7

Tau-RD3 (Tau repeat domain 3), sequence (P10636 623-653 limits assumed): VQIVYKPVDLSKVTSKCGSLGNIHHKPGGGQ
T1 sequence (P05067 672-713 limits assumed): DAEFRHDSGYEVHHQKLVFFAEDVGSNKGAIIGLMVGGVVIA

As to `Cc1cc(OCCCc2ccccc2)cc2c1C(c1scnc1C)=C(c1cccnc1)C2=O` [Compound 46, 4-methyl-3-(4-methylthiazol-5-yl)-6-(3-phenylpropoxy)-2-(pyridin-3-yl)-1H-inden-1-one], in test [1], the EC50 was less than 20 µM and the “disaggregation effect for tau protein aggregates” value is “remarkably excellent disaggregation effect”. Further, on Aβ1-42, the EC50 was less than 20 µM and the “disaggregation effect for amyloid-beta protein aggregates” value was “remarkably excellent disaggregation effect”.
On to `COc1cc(OCCCc2ccccc2)cc2c1C(c1scnc1C)=C(c1cccnc1)C2=O` [Compound 47, 4-methoxy-3-(4-methylthiazol-5-yl)-6-(3-phenylpropoxy)-2-(pyridin-3-yl)-1H-inden-1-one], for which, in test [1], the concentration giving a half-maximal response (EC50) is less than 20 µM and the “disaggregation effect for tau protein aggregates” value is listed as “remarkably excellent disaggregation effect”. Further, at Aβ1-42, the concentration for a half-maximal effect (EC50) was less than 20 µM and the “disaggregation effect for amyloid-beta protein aggregates” value is reported as “remarkably excellent disaggregation effect”.
As to `Cc1ncsc1C1=C(c2cccnc2)C(=O)c2cc(OCCCc3ccccc3)cc(O)c21` [Compound 48, 4-hydroxy-3-(4-methylthiazol-5-yl)-6-(3-phenylpropoxy)-2-(pyridin-3-yl)-1H-inden-1-one], the figures for the half-maximal effective concentration (EC50) (in test [1]; at Aβ1-42) were greater than 250 µM and less than 20 µM, respectively.
With `Cc1ncsc1C1=C(c2cccnc2)C(=O)c2cc(NC3CCCC3)ccc21` [Compound 49, 6-(cyclopentylamino)-3-(4-methylthiazol-5-yl)-2-(pyridin-3-yl)-1H-inden-1-one], the EC50 in test [1] is greater than 250 µM; at Aβ1-42, less than 20 µM.
For `CNc1ccc2c(c1)C(=O)C(c1cccnc1)=C2c1scnc1C` [Compound 50, 6-(methylamino)-3-(4-methylthiazol-5-yl)-2-(pyridin-3-yl)-1H-inden-1-one], in that order: greater than 250 µM and greater than 250 µM.
Take `Cc1ncsc1C1=C(c2cccnc2)C(=O)c2cc(NC3CCN(C)CC3)ccc21` [Compound 51, 6-((1-methylpiperidin-4-yl)amino)-3-(4-methylthiazol-5-yl)-2-(pyridin-3-yl)-1H-inden-1-one]: the EC50 in test [1] was 20 to 100 µM; at Aβ1-42, less than 20 µM.
With `Cc1ncsc1C1=C(c2cccnc2)C(=O)c2cc(NCC3CCOCC3)ccc21` [Compound 52, 3-(4-methylthiazol-5-yl)-2-(pyridin-3-yl)-6-(((tetrahydro-2H-pyran-4-yl)methyl)amino)-1H-inden-1-one], the EC50 (in test [1]; at Aβ1-42) was greater than 250 µM throughout.
In the case of `Cc1ncsc1C1=C(c2cccnc2)C(=O)c2cc(NCCO)ccc21` [Compound 53, 6-((2-hydroxyethyl)amino)-3-(4-methylthiazol-5-yl)-2-(pyridin-3-yl)-1H-inden-1-one], the half-maximal effective concentration (EC50) (in test [1]; at Aβ1-42) was greater than 250 µM in each case.
In the case of `COCCNc1ccc2c(c1)C(=O)C(c1cccnc1)=C2c1scnc1C` [Compound 54, 6-((2-methoxyethyl)amino)-3-(4-methylthiazol-5-yl)-2-(pyridin-3-yl)-1H-inden-1-one], the EC50 (in test [1]; on Aβ1-42) was greater than 250 µM throughout.
Take `Cc1ncsc1C1=C(c2cccnc2)C(=O)c2cc(NCCOc3ccccc3)ccc21` [Compound 55, 3-(4-methylthiazol-5-yl)-6-((2-phenoxyethyl)amino)-2-(pyridin-3-yl)-1H-inden-1-one]: the EC50 in test [1] is greater than 250 µM; on Aβ1-42, less than 20 µM.
For `Cc1ncsc1C1=C(c2cccnc2)C(=O)c2cc(NC3CCOCC3)ccc21` [Compound 56, 3-(4-methylthiazol-5-yl)-2-(pyridin-3-yl)-6-((tetrahydro-2H-pyran-4-yl)amino)-1H-inden-1-one], the EC50 (in test [1]; at Aβ1-42) was 20 to 100 µM in each case.
Take `Cc1ncsc1C1=C(c2cccnc2)C(=O)c2cc(SCCCc3ccccc3)ccc21` [Compound 57, 3-(4-methylthiazol-5-yl)-6-((3-phenylpropyl)thio)-2-(pyridin-3-yl)-1H-inden-1-one]: in test [1], the EC50 is less than 20 µM and the “disaggregation effect for tau protein aggregates” value is recorded as “remarkably excellent disaggregation effect”. In addition, on Aβ1-42, the EC50 is less than 20 µM and the “disaggregation effect for amyloid-beta protein aggregates” value is “remarkably excellent disaggregation effect”.
`Cc1ncsc1C1=C(c2cccnc2)C(=O)c2cc(NC3CCCN(c4ccccc4)C3)ccc21` (centres unmarked) [Compound 58, 3-(4-methylthiazol-5-yl)-6-((1-phenylpiperidin-3-yl)amino)-2-(pyridin-3-yl)-1H-inden-1-one]: the results for the EC50 (in test [1]; on Aβ1-42) were greater than 250 µM and less than 20 µM, respectively.
On to `Cc1ncsc1C1=C(c2cccnc2)C(=O)c2cc(N)ccc21` [Compound 59, 6-amino-3-(4-methylthiazol-5-yl)-2-(pyridin-3-yl)-1H-inden-1-one], for which the EC50 (in test [1]; on Aβ1-42) was 20 to 100 µM throughout.
With `Cc1ncsc1C1=C(c2cccnc2)C(=O)c2cc(NC(=O)CCc3ccccc3)ccc21` [Compound 60, N-(3-(4-methylthiazol-5-yl)-1-oxo-2-(pyridin-3-yl)-1H-inden-6-yl)-3-phenylpropanamide], the concentration for a half-maximal effect (EC50) in test [1] was less than 20 µM; at Aβ1-42, 20 to 100 µM.
With `Cc1ncsc1C1=C(c2cccnc2)C(=O)c2cc(NC(=O)C3CCOCC3)ccc21` [Compound 61, N-(3-(4-methylthiazol-5-yl)-1-oxo-2-(pyridin-3-yl)-1H-inden-6-yl)tetrahydro-2H-pyran-4-carboxamide], the EC50 (in test [1]; on Aβ1-42) was greater than 250 µM throughout.
With `Cc1ncsc1C1=C(c2cccnc2)C(=O)c2cc(N(C)C)ccc21` [Compound 62, 6-(dimethylamino)-3-(4-methylthiazol-5-yl)-2-(pyridin-3-yl)-1H-inden-1-one], the half-maximal effective concentration (EC50) (in test [1]; at Aβ1-42) was greater than 250 µM each time.
`Cc1ncsc1C1=C(c2cccnc2)C(=O)c2cc(N3CCN(C)CC3)ccc21` [Compound 64, 6-(4-methylpiperazin-1-yl)-3-(4-methylthiazol-5-yl)-2-(pyridin-3-yl)-1H-inden-1-one]: the concentration giving a half-maximal response (EC50) in test [1] was 100 to 250 µM; on Aβ1-42, 20 to 100 µM.
As to `Cc1ncsc1C1=C(c2cccnc2)C(=O)c2cc(Oc3ccccc3)ccc21` [Compound 66, 3-(4-methylthiazol-5-yl)-6-phenoxy-2-(pyridin-3-yl)-1H-inden-1-one], in test [1], the EC50 was less than 20 µM and the “disaggregation effect for tau protein aggregates” value was “remarkably excellent disaggregation effect”. Also, at Aβ1-42, the concentration for a half-maximal effect (EC50) is less than 20 µM and the “disaggregation effect for amyloid-beta protein aggregates” value is on record as “remarkably excellent disaggregation effect”.
As for `CNc1ccc2c(c1)C(=O)C(c1ccccc1)=C2c1ccccc1` [Compound 67, 6-(methylamino)-2,3-diphenyl-1H-inden-1-one], the EC50 (in test [1]; on Aβ1-42) was greater than 250 µM each time.
As to `Nc1ccc2c(c1)C(=O)C(c1ccccc1)=C2c1ccccc1` [Compound 68, 6-amino-2,3-diphenyl-1H-inden-1-one], the EC50 (in test [1]; at Aβ1-42) was greater than 250 µM in each case.
Turning to `CN(C)c1ccc2c(c1)C(=O)C(c1ccccc1)=C2c1ccccc1` [Compound 69, 6-(dimethylamino)-2,3-diphenyl-1H-inden-1-one], the concentration for a half-maximal effect (EC50) was greater than 250 µM in test [1] and less than 20 µM at Aβ1-42.
As to `Cc1cc(N2CCN(C)CC2)cc2c1C(c1ccccc1)=C(c1ccccc1)C2=O` [Compound 71, 4-methyl-6-(4-methylpiperazin-1-yl)-2,3-diphenyl-1H-inden-1-one], the figures for the EC50 (in test [1]; on Aβ1-42) were 100 to 250 µM and 20 to 100 µM, respectively.
Consider `Cc1cccc(C)c1C1=C(c2ccccc2)C(=O)c2cc(Cl)ccc21` [Compound 72-7, 6-chloro-3-(2,6-dimethylphenyl)-2-phenyl-1H-inden-1-one], for which the concentration for a half-maximal effect (EC50) was greater than 250 µM in test [1] and less than 20 µM at Aβ1-42.
As for `CN1CCN(c2ccc3c(c2)C(=O)C(c2cccc(N4CCOCC4)c2)=C3c2ccccc2)CC1` [Compound 73, 6-(4-methylpiperazin-1-yl)-2-(3-morpholinophenyl)-3-phenyl-1H-inden-1-one], the half-maximal effective concentration (EC50) (in test [1]; at Aβ1-42) was 100 to 250 µM throughout.
As to `O=C1C(c2cccc(N3CCOCC3)c2)=C(c2ccccc2)c2ccc(Cl)cc21` [Compound 73-7, 6-chloro-2-(3-morpholinophenyl)-3-phenyl-1H-inden-1-one], the results for the half-maximal effective concentration (EC50) (in test [1]; on Aβ1-42) were greater than 250 µM and less than 20 µM, respectively.
For `Cc1ncsc1C1=C(c2ccc(N3CCN(C)CC3)cc2)C(=O)c2cc(OCCCc3ccccc3)ccc21` [Compound 76, 2-(4-(4-methylpiperazin-1-yl)phenyl)-3-(4-methylthiazol-5-yl)-6-(3-phenylpropoxy)-1H-inden-1-one], in that order: less than 20 µM and less than 20 µM.
